Laboratory results taken from ChEMBL document CHEMBL1142962, “Antiproliferative prenylated stilbenes and flavonoids from Macaranga alnifolia from the Madagascar rainforest” (J Nat Prod, 2007).

System: A2780 (human ovarian cancer)
Assay: Antiproliferative activity against drug-sensitive human A2780 cells

Row | IC50 [µM] | Compound
1 | 0.39 | CC(C)=CCc1c(O)cc(/C=C/c2cc(O)c3c(c2)C[C@@H]2C(C)(C)[C@H](O)CC[C@@]2(C)O3)cc1O [SCHWEINFURTHIN G]
2 | 4.5 | COc1cc(/C=C/c2cc(O)c3c(c2)OC(C)(C)C(O)C3)cc2c1O[C@]1(C)C[C@@H](O)[C@@H](O)C(C)(C)[C@H]1C2 (stereo partly drawn) [SCHWEINFURTHIN H]

Row | Compound | IC50 [µM]
3 | CC(C)=CCc1c(O)cc(/C=C/c2cc(O)c3c(c2)C[C@@H]2C(C)(C)[C@H](O)[C@H](O)C[C@@]2(C)O3)cc1O [VEDELIANIN] | 0.13
